Data set [1] is described as follows: LD50 in the mouse per os (acute toxicity). The note with it: in vivo, po, tested as hydrochloride salt except AC 2, 4 and 9 (free bases). The protocol:
The LD50 of the compounds according to the invention was determined in the mouse per os following the method described by C. S. Weil (Biometrics,8, 249, 1952).
In the following Table I, the numbers under AC (active compound) indicate the compounds described in the corresponding Examples (thus "1" indicates the compound prepared in Example 1).
(§1) ^a all compounds were tested as the hydrochloride salt, except for AC
(§2) 2, 4 and 9 (tested as free bases)

The test system of data set [2] is spontaneously hypertensive rats. As to the kind of experiment: Antihypertensive activity (systolic blood pressure, indirect tail-cuff method) in conscious spontaneously hypertensive rats. It counts as in vivo. As to conditions: Rattus norvegicus, po; os, conscious SHR, 1, 3, 5 and 7 hours after administration; from linear regression of dose-response curve; hydrochloride salt except AC 2, 4 and 9 (free bases); read-out: ED25 (drug dose producing a 25% decrease in systolic blood pressure). As to the method: Antihypertensive activity was evaluated in male spontaneously hypertensive rats (SHR, Wister-Kyoto strain, 15-25 weeks old). The determination of blood pressure was performed by the indirect method (M. Gerald et al, Arzneim.-Forsch., 18, 1825, 1968). The animals were prewarmed in a heating chamber at a temperature from 35° to 37° C. for a period of 15 minutes before administering the compounds. The compounds tested by the oral route were dissolved or suspended in a 0.5% methylcellulose solution. Controls were given only the vehicle. Systolic blood pressure and heart rate were measured 1, 3, 5 and 7 hours after drug administration by means of a tail-cuff and the pulse pick-up method using a recorder.
In the Table I, the antihypertensive activity was expressed as ED25, which is the drug dose producing a 25% decrease in systolic blood pressure in conscious spontaneously hypertensive rats. The ED25 was calculated from the linear regression of the dose-response curve.
as §1, §2

We go through 19 compounds from patent US4940711A, “Antihypertensive N-piperazinylalkanoylanilides” (Recordati, S.A., Chemical and Pharmaceutical Company, priority 1983, dated 1990).

Where a name gives a salt, the structure may show the parent alone. Bounds are passed on as bounds.

Consider `COc1ccccc1N1CCN(CCC(=O)Nc2ccc(S(C)(=O)=O)cc2)CC1` [Example 2, 4-Methylsulphonyl-β-[4-(2-methoxyphenyl)-1-piperazinyl]-propionylanilide], for which the LD50 (usually the dose at which mortality reaches 50%) in data set [1] was above 3000 mg/kg. The ED25 in data set [2] amounted to 7.5 mg/kg.
For `COc1ccccc1N1CCN(CCC(=O)Nc2ccc(S(N)(=O)=O)cc2)CC1` [Example 4, 4-Sulphamoyl-β-[4-(2-methoxyphenyl)-1-piperazinyl]-propionylanilide] the same measures were above 3000 mg/kg and 8.1 mg/kg.
For `COc1ccccc1N1CCN(CCC(=O)Nc2ccc(C(N)=O)cc2)CC1` [Example 5, 4-Carbamoyl-β-[4-(2-methoxyphenyl)-1-piperazinyl]-propionylanilide] the same measures were above 3000 mg/kg and 54.5 mg/kg.
As for `COc1ccccc1N1CCN(CCC(=O)Nc2ccc(C(C)=O)cc2)CC1` [Example 6a, 4-acetyl-β-[4-(2-methoxyphenyl)-1-piperazinyl]-propionylanilide], the LD50 in data set [1] turned out to be 2200 mg/kg. Moreover, in data set [2], the ED25 came to 58.5 mg/kg.
For `COc1ccccc1N1CCN(CCC(=O)Nc2cccc(C(F)(F)F)c2)CC1` [Example 6b, 3-trifluoromethyl-β-[4-(2-methoxyphenyl)-1-piperazinyl]-propionylanilide hydrochloride] the same measures were 1600 mg/kg and 48.8 mg/kg.
For `COc1ccc(NC(=O)CCN2CCN(c3ccccc3OC)CC2)cc1` [Example 6c, 4-methoxy-β-[4-(2-methoxyphenyl)-1-piperazinyl]-propionylanilide] the same measures were above 3000 mg/kg and 10 mg/kg.
On to `COc1cccc(NC(=O)CCN2CCN(c3ccccc3OC)CC2)c1` [Example 6d, 3-methoxy-β-[4-(2-methoxyphenyl)-1-(piperazinyl]-propionylanilide hydrochloride], for which the LD50 in data set [1] is 649 mg/kg. Further, in data set [2], the ED25 was 69 mg/kg.
For `COc1ccccc1N1CCN(CCC(=O)Nc2ccc(C#N)cc2)CC1` [Example 6f, 4-cyano-β-[4-(2-methoxyphenyl)-1-piperazinyl]-propionylanilide] the same measures were 320 mg/kg and 17.2 mg/kg.
For `COc1ccccc1N1CCN(CCC(=O)Nc2ccc([N+](=O)[O-])cc2)CC1` [Example 7, 4-Nitro-β-[4-(2-methoxyphenyl)-1-piperazinyl]-propionylanilide] the same measures were 2100 mg/kg and 50.5 mg/kg.
For `COc1ccccc1N1CCN(CC(=O)Nc2ccc(N)cc2)CC1` [Example 8a] the same measures were 1000 mg/kg and 70.2 mg/kg.
On to `COc1ccccc1N1CCN(CCC(=O)Nc2ccc(C(C)O)cc2)CC1` (stereo not drawn) [Example 9, 4-(1Hydroxyethyl)-β-[4-(2-methoxyphenyl)-1-piperazinyl]-propionylanilide], for which the LD50 in data set [1] came to 537 mg/kg. For the same compound, the ED25 in data set [2] is 69 mg/kg.
For `COc1ccccc1N1CCN(C(C)CC(=O)Nc2ccc(S(N)(=O)=O)cc2)CC1` (stereo not drawn) [Example 10, 4-Sulphamoyl-β-[4-(2-methoxyphenyl)-1-piperazinyl]-butyrylanilide], the 50% lethal dose (LD50) in data set [1] was above 3000 mg/kg. In addition, the ED25 in data set [2] worked out at 8.7 mg/kg.
For `COc1ccccc1N1CCN(CCC(=O)Nc2ccc(S(=O)(=O)NC(C)=O)cc2)CC1` [Example 11, 4-Acetylsulphamoyl-β-[4-(2-methoxyphenyl)-1-piperazinyl]-propionylanilide] the same measures were above 3000 mg/kg and 100 mg/kg.
For `COc1ccccc1N1CCN(CCC(=O)Nc2ccc(NC(C)=O)cc2)CC1` [Example 12, 4-Acetylamino-β-[4-(2-methoxyphenyl)-1-piperazinyl]-propionylanilide] the same measures were above 3000 mg/kg and 100 mg/kg.
For `COc1ccccc1N1CCN(CCC(=O)Nc2cccc(S(N)(=O)=O)c2)CC1` [Example 13, 3-Sulphamoyl-β-[4-(2-methoxyphenyl)-1-piperazinyl]-propionylanilide hydrate] the same measures were above 3000 mg/kg and 100 mg/kg.
Consider `COc1ccccc1N1CCN(CCC(=O)Nc2cccc(Cl)c2)CC1` [Example 14, 3-Chloro-β-[4-(2-methoxyphenyl)-1-piperazinyl]-propinylanilide], for which the LD50 in data set [1] is above 3000 mg/kg. In data set [2], the ED25 came out at 100 mg/kg.
For `COc1ccccc1N1CCN(CCC(=O)Nc2ccc3c(c2)OCO3)CC1` [Example 19, 3,4-Methylenedioxy-β-[4-(2-methoxyphenyl)-1-piperazinyl]-propionylanilide] the same measures were 340 mg/kg and 100 mg/kg.
For `COc1ccccc1N1CCN(CCC(=O)Nc2cc(OC)c(OC)c(OC)c2)CC1` [Example 20, 3,4,5-Trimethoxy-β-[4-(2-methoxyphenyl)-1-piperazinyl]-propionylanilide hydrochloride] the same measures were 730 mg/kg and 60 mg/kg.
In the case of `COc1ccccc1N1CCN(CCC(=O)Nc2ccc(S(=O)(=O)N(C)C)cc2)CC1` [Example 21, 4-(Dimethylsulphamoyl)-β-[4-(2-methoxyphenyl)-1-piperazinyl]-propionylanilide], the median lethal dose (LD50) in data set [1] was above 3000 mg/kg. In addition, the ED25 in data set [2] was 60 mg/kg.
